According to patent US12528774B2, “Thiosemicarbazone compounds and uses thereof” (The Regents of the University of California, priority 2019, dated 2026):

Test system: PDAC (MIAPACA2, CFPAC-1) and PC (C4-2) cell lines
Experiment: Cell death assays (Annexin V/PI, trypan blue) of HCT13 with ATR inhibition
Assay type: cell-based
Conditions: ATRi 250 nM VE-822, Cu(II) 20 μM, 72 h
Protocol: FIGS. 4A-4G show the chemical genomics screen identifying the replication stress response pathway as an actionable co-dependency of HCT13-treated cells. FIG. 4A: experimental design of a synthetic lethality screen using a library of protein kinase inhibitors against HCT13-treated cells in the presence of Cu(II) (20 μM). FIG. 4B: radar plot of screen results. FIG. 4C: z-score values for kinase inhibitors within the DNA damage response/replication stress response (DDR/RSR) pathway module. FIG. 4D: representative immunoblot of replication stress and cell death biomarkers in MIAPACA2 PDAC cells treated with HCT13 (10 nM)+Cu(II) (20 μM). […] (mean±SD, n=2, one-way ANOVA corrected for multiple comparisons by Bonferroni adjustment, * P<0.05; ** P<0.01; *** P<0.001; **** P<0.0001).
FIGS. 6A-6C provide the identification of resistance mechanisms to HCT13 using a synthetic lethality screen. […] (mean±SD, n=2, one-way ANOVA corrected for multiple comparisons by Bonferroni adjustment, * P<0.05; ** P<0.01; *** P<0.001; **** P<0.0001). […]
Viability/Apoptosis assay: Viable cells were measured by Trypan blue staining using vi-cell counter (Beckman Coulter, CA, USA). […]

CN(C)C(=S)N/N=C/c1nccc2cc(F)ccc12 (mixture of isomers) [HCT13, (E)-2-((6-Fluoroisoquinolin-1-yl)methylene)-N,N-dimethylhydrazine-1-carbothioamide and (Z)-2-((6-Fluoroisoquinolin-1-yl)methylene)-N,N-dimethylhydrazine-1-carbothioamide]
interaction with ATR inhibition (cell death): synergistic interaction
